molecular target: Melatonin receptor (Gallus gallus, UniProt P49288+P51050+P49285); assay: In vitro binding affinity against melatonin receptor using 2-[125I]iodomelatonin (0.05 nM) and chicken brain membranes; parameters: species or system Membrane

Ki [nM]	SMILES
273	COc1c2c(cc3ccccc13)CCC(NC(C)=O)C2 (stereo not drawn)
28.7	COc1ccc2cccc3c2c1CC(NC(C)=O)C3 (stereo not drawn)
168	COc1cc2ccccc2c2c1CC(NC(C)=O)CC2 (stereo not drawn)
22.8	COc1ccc2ccc(O)c3c2c1CC(NC(C)=O)C3 (stereo not drawn)
6	CCC(=O)NC1Cc2cccc3ccc(OC)c(c23)C1 (stereo not drawn)
1640	CC(=O)NCCc1c[nH]c2ccc(O)cc12 [ACETYLSEROTONIN]
0.7	COc1ccc2ccc(OC)c3c2c1CC(NC(C)=O)C3
195	CC(=O)NC1Cc2cccc3cccc(c23)C1
